According to patent US12459951B2, “Compounds that interact with RAS superfamily proteins for treatment of cancers, inflammatory diseases, rasopathies, and fibrotic disease” (SHY Therapeutics, LLC, priority 2022, dated 2025):
Like-named read-outs stand apart in the source and are kept apart here.

What was measured:
KRas G12D mutant = experiment: Ras GTP Binding Domain Inhibition Assay (Ras Superfamily Assay); details: at 20 μM; for KRas G12D mutant + SOS: % inh.: with SOS; for KRas G12D mutant: % inh.: without SOS
In short: (§1)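 Ni-plate capture of His-tagged protein (10-30 μg/mL, o/n 4° C); cpd 20 μM or dilution series, 1% DMSO, 3 h RT ± Sos 556-1049 last h; 100 nM Cy-labelled GTP 45 min RT; 3× wash; fluorescence read.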

KRas wild type = experiment: as above; details: at 20 μM; for KRas wild type + SOS: % inh.: with SOS; for KRas wild type: % inh.: without SOS
In short: as §1

[1] = test system: MiaPaca-2 (expressing KRAS G12C mutant); experiment: Proliferation Assay (Cell Viability Assay); type: cell-based; details: Homo sapiens, MIA PaCa-2
In short: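 MiaPaca-2 cells (KRAS G12C) were grown in DMEM-high glucose with 10% FBS, seeded at 2000–5000 cells/well and cultured overnight. Compounds were added at 10 μM final, or as serial dilutions for IC50, in 0.3% DMSO/10% FBS for 2–4 days at 37 °C, 5% CO2. Viability was measured with CellTiter 96 Aqueous One and % inhibition calculated.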

[2] = read-out: Proliferation in MiaPaca-2: IC50
[3] = Proliferation assay, MiaPaca-2, read-out: MiaPaca-2 IC50 (nM) Pancreatic

SMILES	KRas G12D mutant + SOS: % inh. (KRas G12D mutant)	KRas G12D mutant: % inh. (KRas G12D mutant)	KRas wild type + SOS: % inh. (KRas wild type)	KRas wild type: % inh. (KRas wild type)	IC50 [1, 2] [nM]	IC50 [1, 3] [nM]
COc1ccc(Nc2nc(-c3nccn3C)nn3cc(-c4ccn(C(C)C)n4)c(C)c23)nn1 [Compound 74, 6-(1-Isopropyl-1H-pyrazol-3-yl)-N-(6-methoxypyridazin-3-yl)-5-methyl-2-(1-methyl-1H-imidazol-2-yl)pyrrolo[2,1-f][1,2,4]triazin-4-amine]	–	–	–	–	150 to 500	–
COc1cc(Nc2nc(-c3nccn3C)nn3cc(-c4ccn(C)n4)c(C)c23)ncc1-n1cnc(C)c1 [Compound 244, N-(4-Methoxy-5-(4-methyl-1H-imidazol-1-yl)pyridin-2-yl)-5-methyl-2-(1-methyl-1H-imidazol-2-yl)-6-(1-methyl-1H-pyrazol-3-yl)pyrrolo[2,1-f][1,2,4]triazin-4-amine]	D (D = 76-100% inhibition)	D (D = 76-100% inhibition)	D (D = 76-100% inhibition)	C (C = 50-75% inhibition)	< 150	–
Cc1c(-c2ccn(C)n2)cn2nc(-c3nccn3C)nc(Nc3cc(-n4ccnc4)ccn3)c12 [Compound 245, N-(4-(1H-imidazol-1-yl)pyridin-2-yl)-5-methyl-2-(1-methyl-1H-imidazol-2-yl)-6-(1-methyl-1H-pyrazol-3-yl)pyrrolo[2,1-f][1,2,4]triazin-4-amine]	C (C = 50-75% inhibition)	C (C = 50-75% inhibition)	B (B = 26-49% inhibition)	A (A = 1-25% inhibition)	< 150	–
Cc1c(-c2ccn(C)n2)cn2nc(-c3nccn3C)nc(Nc3cc(-c4ccccn4)ccn3)c12 [Compound 248, N-([2,4′-Bipyridin]-2′-yl)-5-methyl-2-(1-methyl-1H-imidazol-2-yl)-6-(1-methyl-1H-pyrazol-3-yl)pyrrolo[2,1-f][1,2,4]triazin-4-amine]	D (D = 76-100% inhibition)	D (D = 76-100% inhibition)	D (D = 76-100% inhibition)	D (D = 76-100% inhibition)	< 150	–
Cc1c(-c2ccn(C)n2)cn2nc(-c3nccn3C)nc(Nc3cc(-c4cccnc4)ccn3)c12 [Compound 250, N-([3,4′-Bipyridin]-2′-yl)-5-methyl-2-(1-methyl-1H-imidazol-2-yl)-6-(1-methyl-1H-pyrazol-3-yl)pyrrolo[2,1-f][1,2,4]triazin-4-amine]	D (D = 76-100% inhibition)	D (D = 76-100% inhibition)	D (D = 76-100% inhibition)	D (D = 76-100% inhibition)	< 150	–
Cc1c(-c2ccn(C)n2)cn2nc(-c3nccn3C)nc(N3CCc4cc(C(F)(F)F)cnc43)c12 [Compound 251, 5-Methyl-2-(1-methyl-1H-imidazol-2-yl)-6-(1-methyl-1H-pyrazol-3-yl)-4-(5-(trifluoromethyl)-2,3-dihydro-1H-pyrrolo[2,3-b]pyridin-1-yl)pyrrolo[2,1-f][1,2,4]triazine]	B (B = 26-49% inhibition)	C (C = 50-75% inhibition)	A (A = 1-25% inhibition)	B (B = 26-49% inhibition)	> 1000	–
COc1cc(Nc2nc(-c3nccn3C)nn3cc(-c4ccn(C)n4)c(C)c23)n[nH]1 [Compound 252, N-(5-Methoxy-1H-pyrazol-3-yl)-5-methyl-2-(1-methyl-1H-imidazol-2-yl)-6-(1-methyl-1H-pyrazol-3-yl)pyrrolo[2,1-f][1,2,4]triazin-4-amine]	D (D = 76-100% inhibition)	D (D = 76-100% inhibition)	D (D = 76-100% inhibition)	C (C = 50-75% inhibition)	< 150	10 to 50
COc1cc(Nc2nc(-c3nccn3C)nn3cc(-c4ccn(C)n4)c(C)c23)nn1C [Compound 253, N-(5-Methoxy-1-methyl-1H-pyrazol-3-yl)-5-methyl-2-(1-methyl-1H-imidazol-2-yl)-6-(1-methyl-1H-pyrazol-3-yl)pyrrolo[2,1-f][1,2,4]triazin-4-amine]	D (D = 76-100% inhibition)	C (C = 50-75% inhibition)	D (D = 76-100% inhibition)	D (D = 76-100% inhibition)	510 to 1000	–
Cc1c(-c2ccn(C)n2)cn2nc(-c3nccn3C)nc(Nc3cc[nH]n3)c12 [Compound 256, 5-Methyl-2-(1-methyl-1H-imidazol-2-yl)-6-(1-methyl-1H-pyrazol-3-yl)-N-(1H-pyrazol-3-yl)pyrrolo[2,1-f][1,2,4]triazin-4-amine]	D (D = 76-100% inhibition)	D (D = 76-100% inhibition)	D (D = 76-100% inhibition)	A (A = 1-25% inhibition)	> 1000	–
Cc1c(-c2ccn(C)n2)cn2nc(-c3nccn3C)nc(Nc3cc(C4CCC4)[nH]n3)c12 [Compound 257, N-(5-Cyclobutyl-1H-pyrazol-3-yl)-5-methyl-2-(1-methyl-1H-imidazol-2-yl)-6-(1-methyl-1H-pyrazol-3-yl)pyrrolo[2,1-f][1,2,4]triazin-4-amine]	D (D = 76-100% inhibition)	D (D = 76-100% inhibition)	D (D = 76-100% inhibition)	C (C = 50-75% inhibition)	150 to 500	–

Next, values leading:

KRas G12D mutant + SOS: % inh. (KRas G12D mutant)	KRas G12D mutant: % inh. (KRas G12D mutant)	KRas wild type + SOS: % inh. (KRas wild type)	KRas wild type: % inh. (KRas wild type)	IC50 [1, 2] [nM]	IC50 [1, 3] [nM]	SMILES
A (A = 1-25% inhibition)	C (C = 50-75% inhibition)	0 (0 = 0% inhibition)	0 (0 = 0% inhibition)	> 1000	–	COc1cccc(-c2cn3nc(-c4nccn4C)nc(N[C@@H]4CC[C@H]4OC)c3c2-c2ccccc2)c1C (racemic) [Compound 272, rac 6-(3-Methoxy-2-methylphenyl)-N-((1R,2R)-2-methoxycyclobutyl)-2-(1-methyl-1H-imidazol-2-yl)-5-phenylpyrrolo[2,1-f][1,2,4]triazin-4-amine]
D (D = 76-100% inhibition)	D (D = 76-100% inhibition)	D (D = 76-100% inhibition)	D (D = 76-100% inhibition)	150 to 500	–	Cc1c(-c2ccn(C)n2)cn2nc(-c3nccn3C)nc(Nc3cc(-n4ccnc4C)ccn3)c12 [Compound 246, 5-Methyl-N-(4-(2-methyl-1H-imidazol-1-yl)pyridin-2-yl)-2-(1-methyl-1H-imidazol-2-yl)-6-(1-methyl-1H-pyrazol-3-yl)pyrrolo[2,1-f][1,2,4]triazin-4-amine]
D (D = 76-100% inhibition)	D (D = 76-100% inhibition)	D (D = 76-100% inhibition)	D (D = 76-100% inhibition)	510 to 1000	–	Cc1c(-c2ccn(C)n2)cn2nc(-c3nccn3C)nc(Nc3ccc(N4CCOCC4)cn3)c12 [Compound 247, 5-Methyl-2-(1-methyl-1H-imidazol-2-yl)-6-(1-methyl-1H-pyrazol-3-yl)-N-(5-morpholinopyridin-2-yl)pyrrolo[2,1-f][1,2,4]triazin-4-amine]
C (C = 50-75% inhibition)	C (C = 50-75% inhibition)	C (C = 50-75% inhibition)	C (C = 50-75% inhibition)	< 150	–	Cc1c(-c2ccn(C)n2)cn2nc(-c3nccn3C)nc(Nc3ccc(-c4ccccn4)cn3)c12 [Compound 249, N-([2,3′-Bipyridin]-6′-yl)-5-methyl-2-(1-methyl-1H-imidazol-2-yl)-6-(1-methyl-1H-pyrazol-3-yl)pyrrolo[2,1-f][1,2,4]triazin-4-amine]
D (D = 76-100% inhibition)	D (D = 76-100% inhibition)	D (D = 76-100% inhibition)	D (D = 76-100% inhibition)	> 1000	–	Cc1c(-c2ccn(C)n2)cn2nc(-c3nccn3C)nc(Nc3cc(OC(F)F)n(C)n3)c12 [Compound 254, N-(5-(Difluoromethoxy)-1-methyl-1H-pyrazol-3-yl)-5-methyl-2-(1-methyl-1H-imidazol-2-yl)-6-(1-methyl-1H-pyrazol-3-yl)pyrrolo[2,1-f][1,2,4]triazin-4-amine]
D (D = 76-100% inhibition)	D (D = 76-100% inhibition)	D (D = 76-100% inhibition)	–	< 150	1 to 10	Cc1cc(Nc2nc(-c3nccn3C)nn3cc(-c4ccn(C)n4)c(C)c23)n[nH]1 [Compound 255, 5-Methyl-2-(1-methyl-1H-imidazol-2-yl)-6-(1-methyl-1H-pyrazol-3-yl)-N-(5-methyl-1H-pyrazol-3-yl)pyrrolo[2,1-f][1,2,4]triazin-4-amine]
0 (0 = 0% inhibition)	0 (0 = 0% inhibition)	0 (0 = 0% inhibition)	A (A = 1-25% inhibition)	> 1000	–	Cc1c(-c2ccn(C)n2)cn2nc(-c3nccn3C)nc(Nc3cc(C(F)F)[nH]n3)c12 [Compound 258, N-(5-(Difluoromethyl)-1H-pyrazol-3-yl)-5-methyl-2-(1-methyl-1H-imidazol-2-yl)-6-(1-methyl-1H-pyrazol-3-yl)pyrrolo[2,1-f][1,2,4]triazin-4-amine]
